# Like-named read-outs stand apart in the source and are kept apart here.
# Experiments:
# [1] = tested on: muscarinic M3 receptors in the salivary glands; experiment: In vivo inositol phosphate increase in salivary glands, Example 44; parameters: species or system Long Evans Hooded rats; details: rat, 3 mg/kg sc
# Protocol: (§1) In lithium chloride-treated laboratory rodents, engagement of muscarinic M1 receptors in the hippocampus may usefully be evaluated in vivo by measuring the increase in the tissue of inositol phosphate (Bymaster F P et al Brain Res 795 (1998) 179-190). This may also be extended to measure engagement of muscaric M3 receptors in the salivary glands.
# (§2) Experimental compounds were administered subcutaneously at 3 mg/kg using standard techniques to Long Evans Hooded rats weighing 225 to 350 g, and which had been pretreated with a subcutaneous injection of lithium chloride at a suitable dose between 3 and 5 mmole/kg. At suitable times the animals were briefly anesthetized using 5% isoflurane and euthanized by decapitation. The brains and submaxillary salivary glands were rapidly dissected out, and the hippocampuses were dissected from the brains. The dissected tissues were homogenized in a suitable volume of ice-cold phosphate-buffered saline containing 10 mM lithium chloride (pH=7.4) using a tissue homogenizer, and used immediately or frozen in aliquots at −80° C. for future use. The concentration of inositol-1-phosphate was determined in the homogenates using the […] IP-One Terbium TR-FRET assay kit (Cisbio Bioassays, cat. #62IPAPEJ) according to the manufacturer's instructions.
# in vitro = in vitro ADME; details: PAMPA, pH 7.4, 400 μM, pH 7.4, 24 hours, room temperature; read-out: PAMPA Permeability Coefficient (×10^6)
# Protocol: PAMPA is a useful in vitro model for predicting the passive diffusion of drugs across the blood-brain barrier (Li, D et al Eur jour of Med Chem 38 (2003) 223-232).
# Compounds were diluted in a 100 mM phosphate buffer (pH 7.4) to a concentration of 400 μM and the stock solutions were placed into a 96-well filter plate (Millipore, #MAIPN4510) pre-wetted with 20 mg/mL porcine brain polar lipid extract in 100% dodecane (Avanti, #131022) and placed into a 96-well acceptor plate (Millipore, #MSSACCEPTOR) whose wells were filled with the same phosphate buffer as in the filter plate. This assembly was incubated at room temperature for 24 hours. The experiment was halted by separating the filter plate from the acceptor plate. Aliquots were removed from the filter plate wells, acceptor plate wells, and stock solutions, and 1% trifluoroacetic acid was added to each. All solutions were measured by LC/UV, and passive diffusion rates were calculated using the peak area values (Avdeef, Alex. 2003. Page 147 in Absorption and Drug Development. Hoboken, N.J.: John Wiley & Sons).
# [2] = Blood and brain concentrations (rats), tail vein injection; type: in vivo, Long-Evans Hooded rats; details: male, Long-Evans Hooded, rat, plasma, iv, 3 mg/kg, 3 mg/kg tail vein injection, read-out: Plasma Terminal Half-life (converted)
# [3] = molecular target: T1, human muscarinic M3 receptors (Homo sapiens, UniProt P20309); type: cell-based; details: for huM3/A9L Smax: percentage of maximal stimulation by carbachol; for huM3/A9L Potency relative to carbachol: relative to the potency of carbachol at its EC50
# T1 construct: host or cells: A9L cells
# T1 sequence (P20309 whole entry): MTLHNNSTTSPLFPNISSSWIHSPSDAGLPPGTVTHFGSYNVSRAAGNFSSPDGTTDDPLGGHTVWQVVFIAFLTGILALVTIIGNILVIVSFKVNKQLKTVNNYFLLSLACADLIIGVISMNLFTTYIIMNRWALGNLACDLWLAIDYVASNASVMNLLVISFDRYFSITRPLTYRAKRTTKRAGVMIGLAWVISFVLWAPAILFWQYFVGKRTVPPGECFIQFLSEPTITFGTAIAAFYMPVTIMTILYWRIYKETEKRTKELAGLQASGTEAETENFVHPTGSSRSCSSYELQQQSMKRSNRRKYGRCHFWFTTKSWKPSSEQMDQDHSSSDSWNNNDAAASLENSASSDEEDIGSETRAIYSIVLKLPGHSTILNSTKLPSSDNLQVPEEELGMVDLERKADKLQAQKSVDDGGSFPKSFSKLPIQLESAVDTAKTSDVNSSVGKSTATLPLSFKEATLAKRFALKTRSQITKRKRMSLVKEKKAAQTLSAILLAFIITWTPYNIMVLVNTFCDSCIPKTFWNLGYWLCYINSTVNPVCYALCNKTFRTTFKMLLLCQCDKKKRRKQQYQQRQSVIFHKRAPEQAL
# Protocol: (§3) Muscarinic M1 and M3 agonist activity was evaluated by measuring the stimulation of inositol phosphate (IP) production in the presence of lithium chloride from A9L cells transfected with expression plasmids containing human muscarinic M1 and M3 receptors, respectively. The cell lines were a gift from Professor William Messer, and the methods were as described in Tejada et al. (J. Med. Chem. 2006; 49: 7518-31) except that the assay was scaled down to run in 384-well plates and the concentration of inositol-1-phosphate in the lysates was determined using the non-isotopic IP-One Terbium TR-FRET assay kit (Cisbio Bioassays, cat. #62IPAPEJ) according to the manufacturer's instructions.
# (§4) Cells were grown to 90% confluence in 384-well high-base, small-volume plates (Greiner Bio-One), compounds were added at suitable concentrations in growth medium containing 10 mM LiCl, buffered with an extra 10 mM HEPES (pH=7.4), and incubated for 60 minutes at 37° C. Cells were lysed and assayed for IP following the manufacturer's instructions.
# (§5) The value for a full agonist is 100%, while partial agonists give values below 100%.
# [4] = molecular target: T2, human muscarinic M1 receptors (Homo sapiens, UniProt P11229); type: cell-based; details: for huM1/A9L Smax: percentage of maximal stimulation by carbachol; for huM1/A9L Potency relative to carbachol: relative to the potency of carbachol at its EC50
# T2 construct: host or cells: A9L cells
# T2 sequence (P11229 1-460): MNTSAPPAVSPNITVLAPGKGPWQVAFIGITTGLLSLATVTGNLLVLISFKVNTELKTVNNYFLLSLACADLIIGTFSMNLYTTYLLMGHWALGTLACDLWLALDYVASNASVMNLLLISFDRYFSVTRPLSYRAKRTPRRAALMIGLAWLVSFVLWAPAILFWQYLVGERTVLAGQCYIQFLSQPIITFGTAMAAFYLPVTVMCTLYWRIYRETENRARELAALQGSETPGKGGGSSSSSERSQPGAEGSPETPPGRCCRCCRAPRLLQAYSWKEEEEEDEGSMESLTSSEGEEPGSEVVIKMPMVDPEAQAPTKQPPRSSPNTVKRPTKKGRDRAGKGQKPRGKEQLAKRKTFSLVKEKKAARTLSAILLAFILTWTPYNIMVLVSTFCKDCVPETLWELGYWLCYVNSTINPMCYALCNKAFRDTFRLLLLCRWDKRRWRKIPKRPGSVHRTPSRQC
# Protocol: as §3, §4, §5
# [5] = tested on: muscarinic M1 receptors in the hippocampus; experiment: In vivo inositol phosphate increase in hippocampus, Example 44; parameters: species or system Long Evans Hooded rats; details: rat, 3 mg/kg sc
# Protocol: as §1, §2
# [6] = Blood and brain concentrations (rats), tail vein injection; type: in vivo, Long-Evans Hooded rats; details: male, Long-Evans Hooded, rat, 3 mg/kg; for Kp at 1 h: brain and plasma, intravenous, Table 114, read-out: Brain/Plasma Ratio; for concentration at 1 h: in vivo, 3 mg/kg tail vein injection
# Protocol: Long-Evans Hooded rats (Charles River: male, 230-300 g) were dosed with solutions of test compounds in PBS by tail vein injection. The dose for all compounds was 3 mg/kg. At one hour, the animals were anesthetized with isoflurane, and then euthanized by decapitation. Trunk blood was collected into a 1.5 mL microcentrifuge tube containing 15 U Heparin, and the plasma recovered after centrifugation. Brains were dissected, weighed, immediately chilled to 4° C., and homogenized using a PowerGen 125 homogenizer in five volumes of ice-cold 2% formic acid. Proteins were precipitated from plasma and brain homogenate with nine and five volumes respectively of ice-cold 2% formic acid and clarified by centrifugation. The supernatant was ultra-filtered by centrifugation through a 3K MWCO spin column (Pall Life Sciences), following the manufacturer's instructions. The concentration of compound in the ultra-filtrate was subjected to reverse-phase liquid chromatography using a 150×2.1 mm Agent C8 reverse-phase column on a Shimadzu Prominence LC, eluting the compounds with a gradient of 2% to 50% of acetonitrile+0.1% formic acid for all compounds. The concentration of the compound in the column effluent was measured using an Applied Biosystems API-3200 triple quadrupole mass spectrometer equipped with an electrospray sample injection system. The counts of the characteristic parent and product ions of each test compound were converted to concentration units by comparison with a standard curve.
# [7] = tested on: pooled male human liver microsomes; experiment: Metabolism in human liver microsomes, Example 45; type: in vitro ADME
# Protocol: Aliquots were removed every 2 hours, and 1% formic acid was added to halt the reaction. Samples were centrifuged, filtered through 0.2 micron spinfilter, and the amount of each compound in the supernatants was quantitated using LC/MS/MS as follows. The ultra-filtrates were subjected to reverse-phase liquid chromatography using a 150×2.1 mm Agilent C8-reverse phase column on a Shimadzu Prominence LC, eluting the compound with a gradient of 2%-50% acetonitrile+0.1% formic acid over 5 minutes. The concentration of the compound in the column effluent was measured using an Applied Biosystems API-3200 triple quadrupole mass spectrometer equipped with a Turbo V source (electrospray sample injection) system. The counts of the characteristic parent ions of the protonated compound and product ions were converted to concentration by comparison with a standard calibration curve. The parent/daughter ion pairs that were monitored for each compound were: 166.0/82.0 (105), 166.0/82.0 (106b), 166.0/82.0 (106a), 169.0/83.0 (136), 168.2/83.0 (121), 168.1/83.0 (122a), 168.1/83.0 (122b), 170.2/83.0 (134), 168.2/84.1 (135), 168.1/84.1 (137) and 169.2/82.1 (138).
# [8] = read-out: Brain Concentration at 1 hr
# [9] = read-out: Plasma Concentration at 1 hr
Structure (SMILES),Increase in Inositol Phosphate in Salivary Gland/Control ([1]; 5 mmole/kg LiCl) [%],"Papp at 24 h, 400 µM (in vitro) [×10⁻⁶ cm/s]",half-life [2] [h],huM3/A9L Smax [3] [%],huM3/A9L Potency relative to carbachol [3],huM1/A9L Smax [4] [%],huM1/A9L Potency relative to carbachol [4],Increase in Inositol Phosphate in Hippocampus/Control ([5]; 5 mmole/kg LiCl) [%],Kp at 1 h [6],"concentration at 1 h [6, 8] [µM]","concentration at 1 h [6, 9] [µM]",Loss at 6 hrs (%) [7] [%],Increase in Inositol Phosphate in Salivary Gland/Control ([1]; 3 mmole/kg LiCl) [%],Increase in Inositol Phosphate in Hippocampus/Control ([5]; 3 mmole/kg LiCl) [%]
"Cc1noc([C@@]23CNC[C@@H]2C3)n1 [Compound 106a, 5-((1R,5R)-3-Azabicyclo[3.1.0]hexan-1-yl)-3-methyl-1,2,4-oxadiazole]",191,4.25,0.7,45,0.46,80,1.72,376,0.39,3.5,5.6,50,–,–
"Cc1noc([C@]23CNC[C@H]2C3)n1 [Compound 106b, 5-((1S,5S)-3-Azabicyclo[3.1.0]hexan-1-yl)-3-methyl-1,2,4-oxadiazole]",104,4.37,1.1,42,0.27,40,0.51,141,0.6,5.5,9.5,29,–,–
"Cc1noc(C23CNCC2C3)n1 (racemic) [Compound 105, 5-(3-Azabicyclo[3.1.0]hexan-1-yl)-3-methyl-1,2,4-oxadiazole]",219,4.49,1.1,33,0.17,58,0.78,563,0.38,4.4,15,27,–,–
"[2H]C1([2H])NC[C@]2(c3nc(C)no3)C[C@H]12 [Compound 122b, 5-((1S,5S)-4,4-d2-3-azabicyclo[3.1.0]hexan-1-yl)-3-methyl-1,2,4-oxadiazole]",–,3.7,1.3,28,0.50,47,0.54,–,0.58,5.1,8.8,13,163,150

# Source: US9403806B1, “Cognition enhancing compounds and compositions, methods of making, and methods of treating” (NeuroSolis, Inc., priority 2010, dated 2016)
